From patent US4372970A, “Benzofuran acetic acid esters and their arthropocidal compositions” (Shell Internationale Research Maatschappij B.V., priority 1979, dated 1983)

Experiments:
Format in all cases: in vivo
Aedes aegypti = assay: Larvicidal activity against Aedes aegypti (kill after 24 hours, LC50, relative to Resmethrin); conditions: Aedes aegypti 3 day old larvae, from LC50
Procedure: (§1) The insecticidal activities of the compounds of the Examples has been shown by the following tests in four species of insects, namely Aedes aegypti, Musca domestica, Blattella germanica, and Tribolium castaneum.
A 0.2 cm^3 sample of a solution of test compound in AR acetone was applied to water (200 cm^3) containing 20 (3 day old) larvae. Kill was recorded after 24 hours. Solutions of different concentration were tested from which the concentration of solution which gives 50% kill (LC50) was determined.
(§2) The results are all expressed as activities relative to the activity of Resmathrin (assigned activity=100), determined by the methods described. [formula]

Blattella germanica = assay: Topical activity against Blattella germanica (24 hours, LC50, relative to Resmethrin); conditions: Blattella germanica 1-4 week old adult males, from LC50
Procedure: as §1
A 2 μl drop of a solution of the test compound in AR acetone was applied between the rear coxae of 1-4 week old adult males. Knockdown was recorded after 24 hours. Solutions of different concentration were tested from which the concentration of solution which gives 50% kill (LC50) was determined.
as §2

Musca domestica [1] = assay: Topical activity against Musca domestica, compound alone (24 hours, LC50, relative to Resmethrin); conditions: Musca domestica 3-day old adult females, without synergist, from LC50
Procedure: as §1
(§3) (i) A 1 μl drop of a solution of test compound in AR acetone (high purity acetone) was applied to the dorsal thorax of 3-day old adult females. Knockdown was recorded after 24 hours. Solutions of different concentration were tested from which the concentration of solution and therefore the amount of compound which gives 50% kill (LC50) was determined.
as §2

Musca domestica [2] = assay: Topical activity against Musca domestica with synergist piperonyl butoxide (24 hours, LC50, relative to Resmethrin); conditions: Musca domestica 3-day old adult females, with 0.5% w/v piperonyl butoxide, from LC50
Procedure: as §1, §3
(ii) Similar tests were carried out with the amendment that to each test solution, 0.5% w/v of commercial insecticide synergist, piperonyl butoxide, was added.
as §2

Tribolium castaneum = assay: Topical activity against Tribolium castaneum (knockdown after 48 hours, LD50, relative to Resmethrin); conditions: Tribolium castaneum adults, from LD50
Procedure: as §1
A 1 μl drop of a solution of test compound in AR acetone was applied topically to adult insects. Knockdown was recorded after 48 hours. Solutions of different concentrations were tested from which the concentration of solution which gives 50% knockdown (LD50) was determined.
as §2

Megoura vicae = assay: Knockdown of Megoura vicae (dip test); conditions: Megoura vicae adults, knockdown after 24 hours
Excerpt: (§4) The activities of some of the compounds of the Examples has been shown in the following tests in three species of phytophagous arthropods, namely Megoura vicae, Plutella xylostella, Tetranychus cinnabarinus.
(§5) Aqueous suspensions of test compound were made by adding a solution of test compound in AR acetone to a solution of TWEEN 80 (200 p.p.m.) in water.
Adult insects were dipped individually for 4 seconds in the aqueous suspension of test compound and then placed on a filter paper in a Petri dish (9.0 cm diameter) with a p.t.f.e. rim. A 5.0 cm long piece of broad bean stem was added and the lid was put on. Knockdown was recorded after 24 hours.

Tetranychus cinnabarinus = assay: Activity against Tetranychus cinnabarinus (dwarf French bean leaf dip test); conditions: foliar, Tetranychus cinnabarinus adult mites, 48 hours, read-out: Tetranychus % KD at 500.0 ppm
Excerpt: as §4, §5
The two primary leaves of dwarf French beans were reduced to 2.5 cm squares, and they were infested with ca. 20 adult mites. The leaves were then dipped for 4 seconds in the aqueous suspension of the test compound and allowed to dry. Adult mortality was recorded after 48 hours.

Plutella xylostella = assay: Knockdown of Plutella xylostella (cabbage leaf dip test); conditions: foliar, Plutella xylostella 3rd instar larvae, knockdown after 24 hours, read-out: Plutella % KD at 25.0 ppm
Excerpt: as §4, §5
A 9.0 cm square of cabbage leaf was dipped for 4 seconds in the aqueous suspension of the test compound, and allowed to dry. The leaf was placed on filter paper in a Petri dish (9.0 cm). Five 3rd instar larvae were placed on the leaf, and the dish was placed in a polythene bag containing a wet cotton-wool pad. Knockdown was recorded after 24 hours.

SMILES | Activity Relative to Resmethrin = 100, Aedes (Aedes aegypti) | Activity Relative to Resmethrin = 100, Blattella (Blattella germanica) | Activity Relative to Resmethrin = 100, Musca Alone (Musca domestica [1]) | Activity Relative to Resmethrin = 100, Musca with Synergist (Musca domestica [2]) | Activity Relative to Resmethrin = 100, Tribolium (Tribolium castaneum) | Megoura % KD at 1.0 ppm (Megoura vicae) [%] | mortality at 500 ppm (Tetranychus cinnabarinus) [%] | mortality at 25 ppm (Plutella xylostella) [%]
CC(C)C(C(=O)OC(C#N)c1cccc(Oc2ccccc2)c1)c1ccc(Cl)c2oc(Br)cc12 (stereo not drawn) [Example 13, α-Cyano-m-phenoxybenzyl 2-bromo-7-chloro-α-isopropylbenzofuran-4-acetate] | 267 | < 10 | 10 | 417 | < 2 | 86.6 | < 10 | 
Cc1oc2cc(C(C(=O)OCc3cccc(Oc4ccccc4)c3)C(C)C)ccc2c1C (stereo not drawn) [Example 15, m-Phenoxybenzyl 2,3-dimethyl-α-isopropylbenzofuran-6-acetate] | 118 | < 10 | 1 | 24 | 4.7 | 90 | 100 | 
CC(C)C(C(=O)OC(C#N)c1cccc(Oc2ccccc2)c1)c1ccc2c(Cl)coc2c1 (stereo not drawn) [Example 7, α-Cyano-m-phenoxybenzyl 3-chloro-α-isopropylbenzofuran-6-acetate] | 250 | 1240 | 133 | 6060 | 411 | 98.3 | 88.8 | 100
CC(C)C(C(=O)OCc1cccc(Oc2ccccc2)c1)c1ccc2c(Cl)coc2c1 (stereo not drawn) [Example 6, m-Phenoxybenzyl 3-chloro-α-isopropylbenzofuran-6-acetate] | 151 |  | 20 | 110 | 80.4 |  |  | 
CC(C)C(C(=O)OCc1cccc(Oc2ccccc2)c1)c1ccc2ccoc2c1 (stereo not drawn) [Example 1, m-Phenoxybenzyl α-isopropylbenzofuran-6-acetate] | 182 | 197 | 88 | 87 | 102.9 | 63.7 | 65.5 | 97.5
CC(C)C(C(=O)OC(C#N)c1cccc(Oc2ccccc2)c1)c1ccc2cc(Br)oc2c1 (stereo not drawn) [Example 11, α-Cyano-m-phenoxybenzyl 2-bromo-α-isopropylbenzofuran-6-acetate] | 160 | 207 | 68 | 417 | 88 | 35 | < 20 | 
CC(C)C(C(=O)OC(C#N)c1cccc(Oc2ccccc2)c1)c1cccc2occc12 (stereo not drawn) [Example 8, α-Cyano-m-phenoxybenzyl α-isopropylbenzofuran-4-acetate] | 108 | 206 | 125 | 926 | 194 | 66.9 | 100 | 87.5
Cc1oc2cc(C(C(=O)OC(C#N)c3cccc(Oc4ccccc4)c3)C(C)C)ccc2c1C (stereo not drawn) [Example 14, α-Cyano-m-phenoxybenzyl 2,3-dimethyl-α-isopropylbenzofuran-6-acetate] | 200 | 62 | 12 | 179 | < 17.5 | 93.3 | 46.7 | 
CC(C)C(C(=O)OC(C#N)c1cccc(Oc2ccccc2)c1)c1ccc2occc2c1 (stereo not drawn) [Example 9, α-Cyano-m-phenoxybenzyl α-isopropylbenzofuran-5-acetate] | 174 | 1378 | 186 | 333 | 389 | 93.75 | 81.7 | 90
CC(C)C(C(=O)OC(C#N)c1cccc(Oc2ccccc2)c1)c1ccc(Cl)c2occc12 (stereo not drawn) [Example 12, α-Cyano-m-phenoxybenzyl 7-chloro-α-isopropylbenzofuran-4-acetate] | 417 | 207 | 140 | 454 | 100 | 15 | < 10 | 
CC(C)C(C(=O)OC(C#N)c1cccc(Oc2ccccc2)c1)c1ccc2c(c1)CCO2 (stereo not drawn) [Example 10, α-Cyano-m-phenoxybenzyl 2,3-dihydro-α-isopropylbenzofuran-5-acetate] | 286 | 207 | 18 | 575 | 159 | 0 | < 20 | 
CC(C)C(C(=O)OCc1cccc(Oc2ccccc2)c1)c1ccc2sccc2c1 (stereo not drawn) [Example 3, m-Phenoxybenzyl α-isopropylbenzo(b)thiophene-5-acetate] | 6.5 | 62 | 17 | 100 | 29.2 | 61.25 | 76.7 | 47.5
CC(C)C(C(=O)OCc1cccc(Oc2ccccc2)c1)c1cccc2occc12 (stereo not drawn) [Example 5, m-Phenoxybenzyl α-isopropylbenzofuran-4-acetate] | 211 | 20.7 | 9 | 27 | 50 | 32.5 | 33.2 | 57.5
